According to patent EP0264038A1, “Cytostatics containing glycidyl groups” (Henkel Kommanditgesellschaft auf Aktien, priority 1986, dated 1988):

Test system: Tumorart P 388 (Leukämie)
Experiment: Cytostatic activity: survival of mice with i.p. implanted P 388 leukemia (NCI protocol 1200)
Type: in vivo, Mäusen
Conditions: 9-day treatment, P 388 set i.p. with 10⁶ Zellen/Maus, untreated mean survival 10 days
Description: Die nachfolgenden Versuche wurden durchgeführt nach Testvorschriften des National Cancer Institute Bethesda, Maryland 200014, veröffentlicht in "Cancer Chemotherapy Reports" Part. 3, Sept. 1972, Vol. 3, Nr. 2.
Die Substanz wurde als wäßrige 1 %ige Injektionslösung unmittelbar vor der Applikation frisch hergestellt.
Bei Mäusen wurden gemäß Protokoll 1200 (S. 91 c) die Tumorart P 388 (Leukämie) i.p. mit 10⁶ Zellen/Maus gesetzt. Die unbehandelten Tiere hatten eine mittlere Überlebensdauer von 10 Tagen.
Mit den behandelten Testtieren, die einer 9-tägigen i.p. Behandlung mit der in Tabelle 1 angegebenen Dosis unterworfen wurden, wurde eine signifikante Verlängerung der Lebensdauer gegenüber der mittleren Überlebensdauer der nicht mit dem Wirkstoff behandelten Tiere erzielt. Die Verlängerungsrate T/C in Abhängigkeit von der Dosierung des Wirkstoffes ist nachtstehend tabellarisch zusammengestellt.

With O=P(CC1CO1)(CC1CO1)CC1CO1 (stereo not drawn) [Triglycidylphosphinoxid] the “Verlängerungsrate T/C in %” value (Dosis 15 mg/kg) was 243%, the “Verlängerungsrate T/C in %” value (Dosis 3,75 mg/kg) was 163% and the “Verlängerungsrate T/C in %” value (Dosis 7,5 mg/kg) was 176%.
